Results taken from article PMC9516332 (Frontiers in Oncology, 2022).
Where two headings read alike, the source gives them in different places.

Tested on: 134 cancer cell lines
Assay: Cell viability assay (ATPlite, 72 hours), IC50 on cancer cell line panel

CCc1nc(C(N)=O)c(Nc2ccc(N3CCC(N4CCN(C)CC4)CC3)c(OC)c2)nc1NC1CCOCC1 [gilteritinib]
IC50 (Homo sapiens, MOLT-4, read-out: IC50 in cell proliferation assay, MOLT-4 cell line): 1 µM | IC50 (Homo sapiens, MV4-11, read-out: IC50 in cell proliferation assay, MV4-11 cell line (FLT3 ITD)): 0.000832 µM | IC50 (Homo sapiens, MeWo, read-out: IC50 in cell proliferation assay, MeWo cell line): 0.336 µM | IC50 (Homo sapiens, NCCIT, read-out: IC50 in cell proliferation assay, NCC-IT cell line): 0.307 µM | IC50 (Homo sapiens, NCI-H82, read-out: IC50 in cell proliferation assay, cell line NCI-H82): 0.3 µM | IC50 (Homo sapiens, NCI-H460, read-out: IC50 in cell proliferation assay, NCI-H460 cell line): 0.499 µM | IC50 (Homo sapiens, NCI-H661, read-out: IC50 in cell proliferation assay, NCI-H661 cell line): 0.233 µM | IC50 (Homo sapiens, NCI-H716, read-out: IC50 in cell proliferation assay, cell line NCI-H716 (FGFR2-COL14A1)): 0.584 µM | IC50 (Homo sapiens, NCI-H1650, read-out: IC50 in cell proliferation assay, NCI-H1650 cell line (EGFR exon19del)): 0.471 µM | IC50 (Homo sapiens, NCI-H1975, read-out: IC50 in cell proliferation assay, NCI-H1975 cell line (EGFR p.L858R + p.T790M)): 0.495 µM | IC50 (Homo sapiens, NCI-H2228, read-out: IC50 in cell proliferation assay, NCI-H2228 cell line (EML4-ALK)): 0.00184 µM | IC50 (Homo sapiens, OVCAR-3, read-out: IC50 in cell proliferation assay, cell line OVCAR-3): 0.591 µM | IC50 (Homo sapiens, PFSK-1, read-out: IC50 in cell proliferation assay, cell line PFSK-1): 0.319 µM | IC50 (Homo sapiens, RL95-2, read-out: IC50 in cell proliferation assay, cell line RL95-2 (EGFR p.A289V)): 0.177 µM | IC50 (Homo sapiens, RPMI-7951, read-out: IC50 in cell proliferation assay, cell line RPMI-7951 (BRAF p.V600E)): 0.645 µM | IC50 (Homo sapiens, RS4-11, read-out: IC50 in cell proliferation assay, cell line RS4;11): 0.388 µM | IC50 (Homo sapiens, Rec1, read-out: IC50 in cell proliferation assay, cell line REC-1): 1.39 µM | IC50 (Homo sapiens, SHP77, read-out: IC50 in cell proliferation assay, cell line SHP-77): 2.47 µM | IC50 (Homo sapiens, SK-BR-3, read-out: IC50 in cell proliferation assay, cell line SK-BR-3 (ERBB2 amplification)): 12.5 µM | IC50 (Homo sapiens, SK-N-AS, read-out: IC50 in cell proliferation assay, cell line SK-N-AS): 0.439 µM | IC50 (Homo sapiens, SK-N-FI, read-out: IC50 in cell proliferation assay, cell line SK-N-FI): 0.242 µM | IC50 (Homo sapiens, SK-N-MC, read-out: IC50 in cell proliferation assay, cell line SK-N-MC): 0.242 µM | IC50 (Homo sapiens, SK-N-SH, read-out: IC50 in cell proliferation assay, cell line SK-N-SH (ALK p.F1174L)): 0.415 µM | IC50 (Homo sapiens, SNU-5, read-out: IC50 in cell proliferation assay, cell line SNU-5 (MET amplification)): 0.466 µM | IC50 (Homo sapiens, SNU-16, read-out: IC50 in cell proliferation assay, cell line SNU-16 (FGFR2 amplification)): 1.09 µM | IC50 (Homo sapiens, SNU-C2B, read-out: IC50 in cell proliferation assay, cell line SNU-C2B (EGFR p.R165Q)): 0.352 µM | IC50 (Homo sapiens, SU-DHL-1, read-out: IC50 in cell proliferation assay, cell line SU-DHL-1 (NPM1-ALK)): 0.019 µM | IC50 (Homo sapiens, SU-DHL-6, read-out: IC50 in cell proliferation assay, cell line SU-DHL-6): 0.993 µM | IC50 (Homo sapiens, SUP-T1, read-out: IC50 in cell proliferation assay, cell line SUP-T1): 0.956 µM | IC50 (Homo sapiens, SW48, read-out: IC50 in cell proliferation assay, cell line SW48 (EGFR p.G719S)): 0.286 µM | IC50 (Homo sapiens, SW480, read-out: IC50 in cell proliferation assay, cell line SW480): 1.36 µM | IC50 (Homo sapiens, SW626, read-out: IC50 in cell proliferation assay, cell line SW626): 0.551 µM | IC50 (Homo sapiens, SW780, read-out: IC50 in cell proliferation assay, cell line SW780 (FGFR3-BAIAP2L1)): 0.483 µM | IC50 (Homo sapiens, SW837, read-out: IC50 in cell proliferation assay, cell line SW837): 1.95 µM | IC50 (Homo sapiens, SW872, read-out: IC50 in cell proliferation assay, cell line SW872 (BRAF p.V600E)): 0.302 µM | IC50 (Homo sapiens, SW900, read-out: IC50 in cell proliferation assay, cell line SW900): 0.315 µM | IC50 (Homo sapiens, SW948, read-out: IC50 in cell proliferation assay, cell line SW948): 0.789 µM | IC50 (Homo sapiens, SW982, read-out: IC50 in cell proliferation assay, cell line SW982 (BRAF p.V600E)): 0.323 µM | IC50 (Homo sapiens, SW-620, read-out: IC50 in cell proliferation assay, cell line SW620): 0.527 µM | IC50 (Homo sapiens, T98G, read-out: IC50 in cell proliferation assay, cell line T98G): 0.819 µM | IC50 (Homo sapiens, TCC-SUP, read-out: IC50 in cell proliferation assay, cell line TCCSUP): 0.326 µM | IC50 (Homo sapiens, THP-1, read-out: IC50 in cell proliferation assay, cell line THP-1): 1.12 µM | IC50 (Homo sapiens, U2OS, read-out: IC50 in cell proliferation assay, cell line U2OS): 0.224 µM | IC50 (Homo sapiens, U-87 MG, read-out: IC50 in cell proliferation assay, cell line U-87MG ATCC): 2.25 µM | IC50 (Homo sapiens, U-118-MG, read-out: IC50 in cell proliferation assay, cell line U-118MG): 1.33 µM | IC50 (Homo sapiens, UMUC3, read-out: IC50 in cell proliferation assay, cell line UM-UC-3): 0.461 µM | IC50 (Hs766T, read-out: IC50 in cell proliferation assay, Hs 766T cell line): 0.343 µM | IC50 (L-82, read-out: IC50 in cell proliferation assay, L-82 cell line (NPM1-ALK)): 0.002 µM | IC50 (Rh30, read-out: IC50 in cell proliferation assay, cell line Rh30): 0.355 µM | IC50 (read-out: IC50 in cell proliferation assay, 11-18 cell line (EGFR p.L858R)): 0.58 µM | IC50 (read-out: IC50 in cell proliferation assay, Hs 852.T cell line): 0.193 µM | IC50 (read-out: IC50 in cell proliferation assay, JAR cell line): 0.476 µM | IC50 (read-out: IC50 in cell proliferation assay, cell line 5637): 0.545 µM | IC50 (read-out: IC50 in cell proliferation assay, cell line A-388): 1.3 µM | IC50 (read-out: IC50 in cell proliferation assay, cell line DB): 0.893 µM | IC50 (read-out: IC50 in cell proliferation assay, cell line DEL (NPM1-ALK)): 0.00258 µM | IC50 (read-out: IC50 in cell proliferation assay, cell line ES-2 (BRAF p.V600E)): 0.712 µM | IC50 (read-out: IC50 in cell proliferation assay, cell line PA-1): 0.489 µM | IC50 (read-out: IC50 in cell proliferation assay, cell line PC-3): 0.889 µM | IC50 (read-out: IC50 in cell proliferation assay, cell line RD): 0.29 µM | IC50 (read-out: IC50 in cell proliferation assay, cell line RKO (BRAF p.V600E)): 1.34 µM | IC50 (read-out: IC50 in cell proliferation assay, cell line RL): 2.6 µM | IC50 (read-out: IC50 in cell proliferation assay, cell line RT-4 (FGFR3-TACC3)): 1.39 µM | IC50 (read-out: IC50 in cell proliferation assay, cell line SR (NPM1-ALK)): 0.022 µM | IC50 (read-out: IC50 in cell proliferation assay, cell line T24): 0.329 µM | IC50 (read-out: IC50 in cell proliferation assay, cell line TT (RET p.C634W)): 0.178 µM | IC50 (read-out: IC50 in cell proliferation assay, cell line VA-ES-BJ): 0.431 µM
